Measurements: patent EP0972448A2, “Parasitic mite control on beneficial insects” (American Cyanamid Company, priority 1998, dated 2000)

Tests used:
Type in all cases: in vivo
[1] = test system: Varroa jacobsoni (Varroa mites); assay: Efficacy against Varroa jacobsoni parasites on topically treated infested honeybees; settings: 1 µl acetone droplet on dorsal abdomen of bee, 5 days at 31°C
Procedure: (§1) In this evaluation, honeybees (Apis mellifera) taken from hives which are 70-90% infested with Varroa jacobsoni (Varroa mites) are chilled to immobilize the bees. A 1 µl droplet of an acetone solution of tebufenpyrad is applied to the dorsal abdomen of each bee. Control bees receive 1 µl droplet of acetone. A total of 50-52 bees are treated for each dose rate tested. Treatment dose rates are based upon the LD50 (dose rate required to obtain 50% mortality of healthy uninfected bees) of tebufenypyrad and are set at 10% of the LD50 and subsequent 10-fold dilution thereof. The treated bees are placed in an incubator at 31°C in the dark and fed 50% sugar water ad libitum for 5 days. After incubation, the bees are examined for mortality and mite infestation. The results are shown in Table I below, as % mortality of the total of the bees and the total of the mites.

[2] = test system: Acarapis woodi (trachea mites); assay: Efficacy against Acarapis woodi parasites, contact with treated glass slides; settings: slides dipped in 500 ppm acetone solution
Procedure: In this evaluation, honeybees (Apis mellifera) which are infested with Acarapis woodi (trachea mites) are dissected to remove the infested tracheae. Glass microscope slides are dipped into acetone solutions of tebufenpyrad (500 ppm)and the acetone is allowed to evaporate. Infested tracheae are placed directly on the treated slides. The mites are removed from the tracheae by dissection and forced to walk across the treated area. The elapsed time is recorded for 100% mortality, i.e. no movement is observed upon agitation.

[3] = test system: Varroa jacobsoni; assay: Field evaluation against Varroa jacobsoni in infested beehives, stickyboard mite count; settings: two strips with 18% tebufenpyrad in 60:40 beeswax:lard, count taken 24 hours after treatment
Text: In this evaluation, two Varroa jacobsoni infested beehives are monitored for the extent of infestation using stickyboards inserted at the bottom of the hive. Data are presented as the number of mites trapped on the stickyboard per day. Two strips (2.5 x 17cm) containing 18% tebufenpyrad dissolved in a 60:40 beeswax:lard (Crisco®) mixture are inserted into each hive brood chamber as per standard practice. One day after treatment, the stickyboards are removed and the dead mites counted.

[4] = test system: honeybees (Apis mellifera); assay: Mortality of topically treated honeybees in the Varroa jacobsoni evaluation; settings: 1 µl acetone droplet on dorsal abdomen, 5 days at 31°C
Procedure: as §1

SMILES: CCc1nn(C)c(C(=O)NCc2ccc(C(C)(C)C)cc2)c1Cl [Tebufenpyrad, N-(4-t-butylbenzyl)-4-chloro-3-ethyl-1-methylpyrazole-5-carboxamide]
- % Mortality Parasites ([1]; dose 0.006 µg/bee): 58%
- % Mortality Parasites ([1]; dose 0.06 µg/bee): 44%
- % Mortality Parasites ([1]; dose 0.6 µg/bee): 92%
- Time required in minutes to achieve 100% mortality ([2]; Rep. 1, 7 mites): 8.5 min
- Time required in minutes to achieve 100% mortality ([2]; Rep. 2, 10 mites): 8 min
- Time required in minutes to achieve 100% mortality ([2]; Rep. 3, 7 mites): 8 min
- Treatment mites/day ([3]; Hive 1, pretreatment 101 mites/day): 1777 mites/day
- Treatment mites/day ([3]; Hive 2, pretreatment 66 mites/day): 1080 mites/day
- % Mortality Bees ([4]; dose 0.006 µg/bee): 24%
- % Mortality Bees ([4]; dose 0.06 µg/bee): 25%
- % Mortality Bees ([4]; dose 0.6 µg/bee): 28%
